Experiments:
[1] = test system: plasma creatinine; assay: Rat high-fat diet study: plasma creatinine; assay type: in vivo, Sprague Dawley male rats; settings: HFD rats, once daily oral gavage in weeks four and five, fold change relative to group 3 (HFD reference), * = P < 0.05
Experimental: (§1) The Ethics Committee of Atatürk University approved all experimental protocols about animal care, handling and experimentation. All experiments were performed in accordance with relevant guidelines and regulations. 44 Sprague Dawley male rats (10-12 weeks old) weighing 375-415 g were obtained from Atatürk University Experimental Research Center (ATADEM) and housed at 22±2° C. with 50±5% humidity on a 12 hr light/dark cycle.
(§2) Chow diet (CD) and a high-fat diet (HFD) were used to fed the animals in this study. The CD was composed of wheat, wheat bran, rice polishing and fish meal, with approximately 25% proteins, 60% carbohydrates and 15% fat in terms of the caloric content. On the other hand, HFD was composed of normal food, beef tallow, sugar and condensed milk and contained approximately 14% proteins, 37% carbohydrates and 49% fat in terms of the caloric content.
(§3) Following 1-week habituation, the rats were separated into two groups: a control group (Group 1, n=4), which was fed with a regular CD; and the HFD group (n=40), which was fed with HFD. After three weeks, four rats in the HFD group (Group 2) were randomly sacrificed and the remaining 36 rats in the HFD group were randomly divided into nine sub-groups (Groups 3-11, four rats in each subgroup).
(§4) Groups 3-11 received the following treatments during weeks four and five: • Group 3 received only the HFD (reference) • Group 4 received the HFD and Serine (1000 mg/kg once daily by oral gavage) • Group 5 received the HFD and NAC (300 mg/kg once daily by oral gavage) • Group 6 received the HFD and L-Carnitine tartrate (LCAT) (100 mg/kg once daily by oral gavage) • Group 7 received the HFD and Nicotinamide riboside chloride (NRCl) (120 mg/kg once daily by oral gavage) • Group 8 received the HFD and Nicotinamide (NA) (120 mg/kg once daily by oral gavage) • Group 9 received the HFD, Serine (1000 mg/kg once daily by oral gavage), NAC (300 mg/kg once daily by oral gavage) and LCAT (100 mg/kg once daily by oral gavage) • Group 10 received the HFD, Serine (1000 mg/kg once daily by oral gavage), NAC (300 mg/kg once daily by oral gavage), LCAT (100 mg/kg/day) and NRCl (120 mg/kg once daily by oral gavage) • Group 11 received the HFD, Serine (1000 mg/kg once daily by oral gavage), NAC (300 mg/kg once daily by oral gavage), LCAT (100 mg/kg once daily by oral gavage) and NA (120 mg/kg once daily by oral gavage)
(§5) The body weight and food intake of the rats was recorded each week. After week five, all animals of groups 3-11 were anesthetized with isoflurane and sacrificed. Blood samples were collected from the abdominal aorta and centrifuged at 8000 rpm for 15 min at 4° C. The plasma was separated and stored at −80° C. until further analysis.
(§6) Plasma samples were thawed and analyzed for creatinine and uric acid.

[2] = test system: plasma uric acid; assay: Rat high-fat diet study: plasma uric acid; assay type: in vivo, Sprague Dawley male rats; settings: HFD rats, once daily oral gavage in weeks four and five, fold change relative to group 3 (HFD reference), * = P < 0.05
Experimental: as §1, §2, §3, §4, §5, §6

Row | Structure (SMILES) | Creatinine Fold change [1] | Uric Acid Fold change [2]
1 | N[C@@H](CO)C(=O)O [Serine] | 0.84* | 0.72*
2 | NC(=O)c1ccc[n+]([C@@H]2O[C@H](CO)[C@@H](O)[C@H]2O)c1.[Cl-] [NRCl, Nicotinamide riboside chloride] | 0.83* | 0.64*
3 | NC(=O)c1cccnc1 [NA, Nicotinamide] | 0.96 | 0.53*
4 | C[N+](C)(C)C[C@H](O)CC(=O)[O-].O=C(O)C(O)C(O)C(=O)O [LCAT, L-Carnitine tartrate] | 0.89 | 0.62*
5 | CC(=O)N[C@@H](CS)C(=O)O [NAC, N-acetyl cysteine] | 0.85 | 0.76

— patent US20240000737A1, “SUBSTANCES FOR TREATMENT OF HYPERURICAEMIA” (SCANDIBIO THERAPEUTICS AB, priority 2020, published 2024)
